# Source: paper PMC9022229, “Induction of Paraptosis by Cyclometalated Iridium Complex-Peptide Hybrids and CGP37157 via a Mitochondrial Ca^2+ Overload Triggered by Membrane Fusion between Mitochondria and the Endoplasmic Reticulum” (Biochemistry, 2022)
# Residues, ends and D or L forms follow the SMILES beside them. *: point of attachment. X1 = O=C(COc1ccc(-c2ccccn2)cc1)NCCCCCCCCN*
# How the values were obtained:
# HeLa S3 cells = test: MTT assay of HeLa S3 cells; type: cell-based, human; details: 24 h, 10% FBS/MEM, 37 °C, 5% CO2
# Protocol: (§1) HeLa S3 and A549 cells (2.0 × 10^4 cells/well) were seeded on a 96-well plate (BD Falcon) in cell culture medium and incubated overnight at 37 °C under 5% CO2. Jurkat (2.0 × 10^4 cells/well), HeLa S3, and A549 cells were treated with 4 (0–25 μM) and CGP37157 (0–100 μM) for 1, 3, 6, 12, and 24 h at 37 °C under 5% CO2, after which a MTT solution in PBS (0.5%, 10 μL) was added to each well.
# (§2) Figure S3. MTT assay of HeLa S3 cells (plain curves with filled circles) and A549 cells (dashed curves with filled squares) treated with CGP37157 (0–100 µM) in 10% FBS/MEM (HeLa S3 cells) and 10% FBS/DMEM (A549 cells) for 24 h at 37 °C under 5% CO 2.
# (§3) Figure S4. MTT assay of Jurkat cells treated with inhibitors of programmed cell death; Z-VAD-fmk (an apoptosis inhibitor), necrostatin-1 (Nec-1: a necroptosis inhibitor), and 3-methyl adenine (3-MA, an autophagy inhibitor) in the presence of CGP37157 (100 µM, 12 h). Values are shown as the mean ± SD for three independent experiments. ** P < 0.01.
# (§4) (also on this page, place not known: Cell viability (% control) CO2. 50 Cell viability (% control) 0300 00030 of)
# A549 cells = test: MTT assay of A549 cells; type: cell-based, human; details: 24 h, 10% FBS/DMEM, 37 °C, 5% CO2
# Protocol: as §1, §2, §3, §4
# mitofusin 1 (MFN1) = test: Western blot analysis of MFN1 in Jurkat cells; type: cell-based; details: for MFN1 band intensity relative to absence of compound: Figure S8B, 12 h
# Protocol: (§5) In a 1.5 mL Eppendorf tube, Jurkat cells (1.0 × 10^6 cells) were incubated in the presence of 4 ([…]), CGP37157 (100 μM for 0–24 h or 0–100 μM for 12 h), and celastrol (0–10 μM for 24 h or 1 μM for 0–24 h) at 37 °C under 5% CO2. After the cells had been washed twice with PBS, the proteins were extracted by using RIPA buffer (Nacalai Tesque) and quantified using a Pierce BCA Protein Assay Kit (Thermo Scientific). Proteins (7.5 μg/well) for MFNs and DRP1 and proteins (5.0 μg/well) for GAPDH were used for sodium dodecyl sulfate–polyacrylamide gel electrophoresis (SDS–PAGE) (7.5% for MFNs and DRP1 and 10% for GAPDH) (Bio-Rad). After SDS–PAGE, the proteins were transferred to a polyvinylidene fluoride membrane (Merck Millipore) by using a semi dry blotter (Bio-Rad). The membrane was blocked with Blocking One solution (Nacalai Tesque) for 30 min at room temperature. After being blocked, the membrane was washed three times with 1× TBST and treated with primary antibodies overnight (at a dilution of 1/1000 for MFNs and DRP1 or 1/2000 for GAPDH) in a signal enhancer HIKARI-solution A (Nacalai Tesque). The membrane was washed three times with 1× TBST and treated with the anti-mouse or anti-rabbit IgG HRP-conjugated secondary antibody (at a dilution of 1/4000 for MFNs and DRP1 or 1/10000 for GAPDH) in 1× TBST for 60 min at room temperature. The protein signal was spotted with a Chemi-Lumi One Ultra solution (Nacalai Tesque) using the ChemiDoc MP system (Bio-Rad). […]
# mitofusin 2 (MFN2) = test: Western blot analysis of MFN2 in Jurkat cells; type: cell-based
# Protocol: as §5
# Jurkat cells [1] = test: Mitochondria-ER membrane fusion, co-staining with MitoTracker Green and ER-Tracker Red; type: cell-based
# Protocol: To verify this hypothesis, mitochondria and the ER were stained with both MitoTracker Green and ER-Tracker Red in the presence of 4, CGP37157, and celastrol (Figure 8). Jurkat cells were stained with MitoTracker Green (0.5 μM) and ER-Tracker Red (1 μM) and then treated with 4 (5 μM) for 10–30 min (time-dependent microscopic images are presented in Figure S5). […] With regard to CGP37157 and celastrol, Jurkat cells were stained with MitoTracker Green (0.5 μM) and ER-Tracker Red (1 μM) and then treated with CGP37157 (100 μM) and celastrol (1 μM) for 1–24 h (Figure 8 and Figure S5).
# In a 1.5 mL Eppendorf tube, Jurkat cells (2.0 × 10^5 cells) were stained with MitoTracker Green (0.5 μM) for 1 h at 37 °C under 5% CO2 and then ER-Tracker Red (1 μM) for 1 h at 37 °C under 5% CO2 in 10% FBS/RPMI 1640 medium (100 μL). After being washed with PBS, the cells were treated with 4 (5 μM) in 10% FBS/RPMI 1640 medium (100 μL) for 0–30 min at 37 °C under 5% CO2. For CGP37157 and celastrol, Jurkat cells were treated with CGP37157 (100 μM) or celastrol (1 μM) in 10% FBS/RPMI 1640 medium (100 μL) for 0–24 h, after which the cells were stained with MitoTracker Green (0.5 μM) for 1 h at 37 °C under 5% CO2 and then ER-Tracker Red (1 μM) for 1 h at 37 °C under 5% CO2 in PBS. The cells were washed with PBS and observed by confocal microscopy (Fluoview, FV-1000, Olympus) using a Greiner CELLview dish (35 mm × 10 mm). Excitation at 473 nm and emission from 485 to 545 nm were used for MitoTracker Green. Excitation at 559 nm and emission from 570 to 620 nm were used for ER-Tracker Red. The exposure time was 20 μs/pixel.
# [2] = tested on: MFN1- and/or MFN2-KD Jurkat cells; test: MTT assay of MFN1- and/or MFN2-KD Jurkat cells; type: cell-based; details: siRNA 10 nM, three independent experiments
# Protocol: The roles of MFNs in the cell death induced by 4 and CGP37157 were examined by using small interfering RNA (siRNA) for MFN1 and MFN2 to knock down (KD) these proteins. […] The cytotoxicity of 4 and CGP37157 against MFN1- and/or MFN2-KD Jurkat cells was evaluated by MTT assays. […] The effect of a negative control siRNA (NCsiRNA) on the expression levels of MFNs and the cell viability of Jurkat cells was negligible, implying that MFNs are […] to the paraptosis induced by 4 and CGP37157. It should be noted that the treatment with siRNA at 5 nM for 72 h was toxic against Jurkat cells in the presence of 4 and CGP37157, although the efficiency of knockdown of these proteins by siRNA could be improved by increasing the incubation time, as shown in Figure S11.
# To a solution of transfection reagent (INTERFERin, 5 μL) in OPTI-MEM (0.3 mL) in a 1.5 mL Eppendorf tube was added siRNA (10 μM, 1 or 2 μL) in H2O, and the resulting solution was allowed to stand for 15 min at room temperature. The resulting solution was then added to Jurkat cells (2.0 × 10^5 cells/mL, 1.5 mL) in 10% FBS/RPMI 1640 medium that had been seeded on a 12-well plate and incubated overnight at 37 °C under 5% CO2 (the final concentration of siRNA was 5 or 10 nM), and the resulting solution was incubated for 48 or 72 h at 37 °C under 5% CO2. The cells were collected by centrifugation (2000 rpm, 3 min, 4 °C), and the expression levels of MFNs were evaluated by Western blot analysis as described above. The cytotoxicity of 4 (3 or 5 μM), CGP37157 (50 or 100 μM), and celastrol (1 μM) against MFNs-KD Jurkat cells was evaluated by MTT assays as described above.
# Jurkat cells [3] = tested on: Jurkat cells; parameters: method as in PMID 25875312, PMID 28032992, doi:10.1002/ejic.201700846, PMID 30154833, PMID 30177492; details: Chart 1, previously reported; read-out: EC50 against Jurkat cells; cited from earlier work
# IMR90 cells = tested on: IMR90 cells; parameters: method as in PMID 25875312, PMID 28032992, doi:10.1002/ejic.201700846, PMID 30154833, PMID 30177492; details: Chart 1, normal cell line, previously reported; read-out: EC50 against IMR90 cells; cited from earlier work
smiles,measurement,setting,value
O=C1CSC(c2ccccc2Cl)c2cc(Cl)ccc2N1 (centres unmarked) [CGP37157],EC50,HeLa S3 cells,45 µM
same,EC50,A549 cells,81 µM
same,Expression level of MFN1 (Figure 11B),"mitofusin 1 (MFN1); CGP37157 100 μM, 1–6 h",weakly changed
same,MFN1 band intensity relative to absence of compound,mitofusin 1 (MFN1); CGP37157 10 µM,1.1
same,MFN1 band intensity relative to absence of compound,mitofusin 1 (MFN1); CGP37157 20 µM,1.1
same,MFN1 band intensity relative to absence of compound,mitofusin 1 (MFN1); CGP37157 50 µM,0.92
same,MFN1 band intensity relative to absence of compound,mitofusin 1 (MFN1); CGP37157 80 µM,0.80
same,MFN1 band intensity relative to absence of compound,mitofusin 1 (MFN1); CGP37157 100 µM,0.63
same,Expression level of MFN2 (Figure 11B),"mitofusin 2 (MFN2); CGP37157 100 μM, 1–6 h",weakly changed
same,MFN2 band intensity relative to absence of compound,"mitofusin 2 (MFN2); Figure S8B, CGP37157 10 µM, 12 h",1.1
same,MFN2 band intensity relative to absence of compound,"mitofusin 2 (MFN2); Figure S8B, CGP37157 20 µM, 12 h",1.6
same,MFN2 band intensity relative to absence of compound,"mitofusin 2 (MFN2); Figure S8B, CGP37157 50 µM, 12 h",1.4
same,MFN2 band intensity relative to absence of compound,"mitofusin 2 (MFN2); Figure S8B, CGP37157 80 µM, 12 h",1.2
same,MFN2 band intensity relative to absence of compound,"mitofusin 2 (MFN2); Figure S8B, CGP37157 100 µM, 12 h",0.95
same,Overlap of MitoTracker Green and ER-Tracker Red emission (mitochondria-ER membrane fusion),"Jurkat cells [1]; CGP37157 100 μM, 6 h",extensively overlapped
same,Effect of knockdown of MFNs on cell death induced by the compound,"[2]; CGP37157 50 or 100 µM, 12 h",weakly inhibited
NCCCC[C@H](NC(=O)[C@H](CCCCN)NC(=O)[C@@H](N)CCCCN)C(=O)NCC(=O)NCC(=O)NCCCCCCCCNC(=O)COc1ccc(-c2ccccn2)cc1 [compound 4] (H-KKKGG-X1),Expression level of MFN2 (Figure 11A),"mitofusin 2 (MFN2); 4 at 5 μM, 30 min to 1 h",weakly changed
same,MFN2 band intensity relative to absence of compound,"mitofusin 2 (MFN2); Figure S8A, 4 at 1 µM, 1 h per legend",1.3
same,MFN2 band intensity relative to absence of compound,"mitofusin 2 (MFN2); Figure S8A, 4 at 2.5 µM, 1 h per legend",1.3
same,MFN2 band intensity relative to absence of compound,"mitofusin 2 (MFN2); Figure S8A, 4 at 5 µM, 1 h per legend",1.4
same,MFN2 band intensity relative to absence of compound,"mitofusin 2 (MFN2); Figure S8A, 4 at 10 µM, 1 h per legend",1.4
same,MFN2 band intensity relative to absence of compound,"mitofusin 2 (MFN2); Figure S8A, 4 at 20 µM, 1 h per legend",1.3
same,Overlap of MitoTracker Green and ER-Tracker Red emission (mitochondria-ER membrane fusion),"Jurkat cells [1]; 4 at 5 μM, 10 min",extensively overlapped
same,Effect of knockdown of MFNs on cell death induced by the compound,"[2]; 4 at 3 or 5 µM, 1 h",weakly inhibited
same,EC50,Jurkat cells [3],1.5 µM
same,EC50,IMR90 cells,> 25 µM
